Source: patent US8877748B2, “Heterocyclic fused anthraquinone derivatives, manufacturing method and pharmaceutical composition using thereof” (National Defense Medical Center, priority 2012, dated 2014)

Assays:
[1] = system: HT29; assay: NCI one-dose screening, colon cancer HT29; assay type: cell-based, human; details: 10 μM
[2] = system: DU145; assay: NCI one-dose screening, prostate cancer DU145; assay type: cell-based, human; details: 10 μM
[3] = system: SNB-75; assay: NCI one-dose screening, CNS cancer SNB-75; assay type: cell-based, human; details: 10 μM
[4] = system: TK-10; assay: NCI one-dose screening, renal cancer TK-10; assay type: cell-based, human; details: 10 μM
[5] = system: MDA-MB-231/ATCC; assay: NCI one-dose screening, breast cancer MDA-MB-231/ATCC; assay type: cell-based, human; details: 10 μM
[6] = system: NCI-H226; assay: NCI one-dose screening, non-small cell lung cancer NCI-H226; assay type: cell-based, human; details: 10 μM
[7] = system: EKVX; assay: NCI one-dose screening, non-small cell lung cancer EKVX; assay type: cell-based, human; details: 10 μM
[8] = system: SR; assay: NCI one-dose screening, leukemia SR; assay type: cell-based, human; details: 10 μM
[9] = system: HS 578-T; assay: NCI one-dose screening, breast cancer HS 578-T; assay type: cell-based, human; details: 10 μM; Breast cancer
[10] = system: HOP-62; assay: NCI one-dose screening, non-small cell lung cancer HOP-62; assay type: cell-based, human; details: 10 μM
[11] = system: NCI-H460; assay: NCI one-dose screening, non-small cell lung cancer NCI-H460; assay type: cell-based, human; details: 10 μM
[12] = NCI one-dose screening, renal cancer A489; assay type: cell-based, human; details: 10 μM
[13] = system: MDA-MB-468; assay: NCI one-dose screening, breast cancer MDA-MB-468; assay type: cell-based, human; details: 10 μM
[14] = system: SK-MEL-28; assay: NCI one-dose screening, melanoma SK-MEL-28; assay type: cell-based, human; details: 10 μM
[15] = system: human tumor cell lines; assay: NCI one-dose screening, Mean / Delta / Range of growth percent over all tested cell lines; assay type: cell-based; details: 10 μM
[16] = system: U251; assay: NCI one-dose screening, CNS cancer U251; assay type: cell-based, human; details: 10 μM
[17] = system: M14; assay: NCI one-dose screening, melanoma M14; assay type: cell-based, human; details: 10 μM
[18] = system: NCI-H23; assay: NCI one-dose screening, non-small cell lung cancer NCI-H23; assay type: cell-based, human; details: 10 μM
[19] = system: OVCAR-3; assay: NCI one-dose screening, ovarian cancer OVCAR-3; assay type: cell-based, human; details: 10 μM
[20] = system: NCl/ADR-RES; assay: NCI one-dose screening, breast cancer NCl/ADR-RES; assay type: cell-based, human; details: 10 μM; listed under Ovarian cancer
[21] = system: MOLT-4; assay: NCI one-dose screening, leukemia MOLT-4; assay type: cell-based, human; details: 10 μM
[22] = system: BT-549; assay: NCI one-dose screening, breast cancer BT-549; assay type: cell-based, human; details: 10 μM
[23] = system: IGROV1; assay: NCI one-dose screening, ovarian cancer IGROV1; assay type: cell-based, human; details: 10 μM
[24] = system: PC-3; assay: NCI one-dose screening, prostate cancer PC-3; assay type: cell-based, human; details: 10 μM
[25] = system: MALME-3M; assay: NCI one-dose screening, melanoma MALME-3M; assay type: cell-based, human; details: 10 μM
[26] = system: UACC-62; assay: NCI one-dose screening, melanoma UACC-62; assay type: cell-based, human; details: 10 μM
[27] = system: KM12; assay: NCI one-dose screening, colon cancer KM12; assay type: cell-based, human; details: 10 μM
[28] = system: SN12C; assay: NCI one-dose screening, renal cancer SN12C; assay type: cell-based, human; details: 10 μM
[29] = system: K562cell line; assay: NCI one-dose screening, leukemia K562; assay type: cell-based, human; details: 10 μM
[30] = system: COLO 205; assay: NCI one-dose screening, colon cancer COLO 205; assay type: cell-based, human; details: 10 μM
[31] = system: UO-31; assay: NCI one-dose screening, renal cancer UO-31; assay type: cell-based, human; details: 10 μM
[32] = system: SK-OV-3; assay: NCI one-dose screening, ovarian cancer SK-OV-3; assay type: cell-based, human; details: 10 μM
[33] = system: MDA, -MB-435; assay: NCI one-dose screening, breast cancer MDA, -MB-435; assay type: cell-based, human; details: 10 μM; listed under Melanoma
[34] = system: HCT-116; assay: NCI one-dose screening, colon cancer HCT-116; assay type: cell-based, human; details: 10 μM
[35] = system: PC-3 prostate cancer cell line; assay: SRB assay cell viability, PC-3 prostate cancer cell line; assay type: cell-based, human; details: PC-3 prostate cancer cell line, Table II prints no unit, μM printed, read-out: SRB assay: 50% inhibition of cancer cell proliferation of sample concentration (IC50) of PC-3 prostate cancer cell line
[36] = system: MCF7; assay: NCI one-dose screening, breast cancer MCF7; assay type: cell-based, human; details: 10 μM
[37] = system: SF-539; assay: NCI one-dose screening, CNS cancer SF-539; assay type: cell-based, human; details: 10 μM
[38] = system: HOP-92; assay: NCI one-dose screening, non-small cell lung cancer HOP-92; assay type: cell-based, human; details: 10 μM
[39] = system: CAKI-1; assay: NCI one-dose screening, renal cancer CAKI-1; assay type: cell-based, human; details: 10 μM
[40] = system: NCI-H522; assay: NCI one-dose screening, non-small cell lung cancer NCI-H522; assay type: cell-based, human; details: 10 μM
[41] = system: SF-295; assay: NCI one-dose screening, CNS cancer SF-295; assay type: cell-based, human; details: 10 μM
[42] = system: 786-O; assay: NCI one-dose screening, renal cancer 786-O; assay type: cell-based, human; details: 10 μM
[43] = system: HL-60, TB; assay: NCI one-dose screening, leukemia HL-60, TB; assay type: cell-based, human; details: 10 μM
[44] = system: T-47D; assay: NCI one-dose screening, breast cancer T-47D; assay type: cell-based, human; details: 10 μM
[45] = system: SNB-19; assay: NCI one-dose screening, CNS cancer SNB-19; assay type: cell-based, human; details: 10 μM
[46] = system: OVCAR-8; assay: NCI one-dose screening, ovarian cancer OVCAR-8; assay type: cell-based, human; details: 10 μM
[47] = system: RXF, 393; assay: NCI one-dose screening, renal cancer RXF, 393; assay type: cell-based, human; details: 10 μM
[48] = system: PRMI-8226 cell line; assay: NCI one-dose screening, leukemia PRMI-8226; assay type: cell-based, human; details: 10 μM
[49] = system: HCC-2998; assay: NCI one-dose screening, colon cancer HCC-2998; assay type: cell-based, human; details: 10 μM
[50] = system: OVCAR-5; assay: NCI one-dose screening, ovarian cancer OVCAR-5; assay type: cell-based, human; details: 10 μM
[51] = system: SK-MEL-2; assay: NCI one-dose screening, melanoma SK-MEL-2; assay type: cell-based, human; details: 10 μM
[52] = system: ACHN; assay: NCI one-dose screening, renal cancer ACHN; assay type: cell-based, human; details: 10 μM
[53] = system: SF-268; assay: NCI one-dose screening, CNS cancer SF-268; assay type: cell-based, human; details: 10 μM
[54] = system: SK-MEL-5; assay: NCI one-dose screening, melanoma SK-MEL-5; assay type: cell-based, human; details: 10 μM
[55] = system: HCT-15; assay: NCI one-dose screening, colon cancer HCT-15; assay type: cell-based, human; details: 10 μM
[56] = system: UACC-257; assay: NCI one-dose screening, melanoma UACC-257; assay type: cell-based, human; details: 10 μM
[57] = system: A549/ATCC; assay: NCI one-dose screening, non-small cell lung cancer A549/ATCC; assay type: cell-based, human; details: 10 μM
[58] = system: LOX IMVI; assay: NCI one-dose screening, melanoma LOX IMVI; assay type: cell-based, human; details: 10 μM

4-(2,5-dichloro-phenyl thio)anthra[2,1-c] [1,2,5]thiadiazol oxazole-6,11-dione [C35]
Growth Percent HT29 [1]: 106.27%
Growth Percent DU145 [2]: 102.44%
Growth Percent SNB-75 [3]: 47.00%
Growth Percent TK-10 [4]: 111.76%
Growth Percent MDA-MB-231/ATCC [5]: 82.44%
Growth Percent NCI-H226 [6]: 112.00%
Growth Percent EKVX [7]: 109.03%
Growth Percent SR [8]: 41.15%
Growth Percent HS 578T [9]: 72.51%
Growth Percent HOP-62 [10]: 63.18%
Growth Percent NCI-H460 [11]: 100.98%
Growth Percent A498 [12]: 87.70%
Growth Percent MDA-MB-468 [13]: 90.73%
Growth Percent SK-MEL-28 [14]: 122.69%
Growth Percent Delta ([15]; delta over all cell lines): 85.86%
Growth Percent Mean ([15]; mean over all cell lines): 87.13%
Growth Percent Range ([15]; range over all cell lines): 121.42%
Growth Percent U251 [16]: 63.57%
Growth Percent M14 [17]: 98.95%
Growth Percent NCI-H23 [18]: 74.59%
Growth Percent OVCAR-3 [19]: 99.41%
Growth Percent NCI/ADR-RES [20]: 83.13%
Growth Percent MOLT-4 [21]: 1.27%
Growth Percent BT-549 [22]: 79.66%
Growth Percent IGROV1 [23]: 78.13%
Growth Percent PC-3 [24]: 80.59%
Growth Percent MALME-3M [25]: 94.30%
Growth Percent UACC-62 [26]: 94.09%
Growth Percent KM12 [27]: 101.18%
Growth Percent SN12C [28]: 96.65%
Growth Percent K562 [29]: 47.80%
Growth Percent COLO 205 [30]: 109.65%
Growth Percent UO-31 [31]: 91.54%
Growth Percent SK-OV-3 [32]: 84.09%
Growth Percent MDA-MB-435 [33]: 105.64%
Growth Percent HCT-116 [34]: 81.94%
IC50 [35]: > 15 µM
Growth Percent MCF7 [36]: 85.16%
Growth Percent SF-539 [37]: 88.74%
Growth Percent HOP-92 [38]: 65.12%
Growth Percent CAKI-1 [39]: 108.19%
Growth Percent NCI-H522 [40]: 91.29%
Growth Percent SF-295 [41]: 78.93%
Growth Percent 786-0 [42]: 67.49%
Growth Percent HL-60(TB) [43]: 72.72%
Growth Percent T-47D [44]: 63.44%
Growth Percent SNB-19 [45]: 84.39%
Growth Percent OVCAR-8 [46]: 85.13%
Growth Percent RXF 393 [47]: 91.47%
Growth Percent RPMI-8226 [48]: 77.16%
Growth Percent HCC-2998 [49]: 109.37%
Growth Percent OVCAR-5 [50]: 108.82%
Growth Percent SK-MEL-2 [51]: 101.38%
Growth Percent ACHN [52]: 88.50%
Growth Percent SF-268 [53]: 82.95%
Growth Percent SK-MEL-5 [54]: 108.82%
Growth Percent HCT-15 [55]: 92.85%
Growth Percent UACC-257 [56]: 119.38%
Growth Percent A549/ATCC [57]: 102.75%
Growth Percent LOX IMVI [58]: 73.05%
